Drawing on US20210101874A1, “MICROBIOCIDAL OXADIAZOLE DERIVATIVES” (SYNGENTA PARTICIPATIONS AG, priority 2017, published 2021), this text covers pest or weed control, inhibition and melting point for three molecules.

Data set [1] relates to Puccinia recondita f. sp. Tritici. The experiment in a line: Puccinia recondita f. sp. tritici / wheat / leaf disc preventative (brown rust). The data set is classed as in vivo. The settings on record: foliar, 200 ppm in the applied formulation, wheat leaf segments cv. Kanzler, inoculated 1 day after application, compared to untreated, assessed 7 to 9 days after application, read-out: disease control. The gist of the method: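 Wheat cv. Kanzler leaf segments on agar sprayed with diluted compound, inoculated with brown rust spores 1 day later. Kept at 19° C., 75% rh, 12 h light/dark; percent disease control versus untreated segments scored 7 to 9 days after application, compounds tested at 200 ppm.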

Data set [2] shares this test system. As to the kind of experiment: Puccinia recondita f. sp. tritici / wheat / leaf disc curative (brown rust). The data set is classed as in vivo. The settings on record: foliar, 200 ppm in the applied formulation, wheat leaf segments cv. Kanzler, applied 1 day after inoculation, compared to untreated, assessed 6 to 8 days after application, read-out: disease control. The gist of the method:
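Segments of wheat (cultivar Kanzler) sit on agar and are spore-inoculated first; after one day in darkness at 19° C and 75% RH the diluted formulated compound is sprayed on. A 12 h photoperiod follows at the same temperature and humidity before disease is scored against untreated controls.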

The subject of a further data set is Phakopsora pachyrhizi. The experiment in a line: Phakopsora pachyrhizi / soybean / leaf disc preventative (Asian soybean rust). The data set is classed as in vivo. The conditions noted are these: foliar, 200 ppm in the applied formulation, soybean leaf disks, inoculated one day after application, compared to untreated, assessed 12 to 14 days after application, read-out: disease control. On the procedure:
Leaf disks or leaf segments of various plant species are cut from plants grown in a greenhouse. The cut leaf disks or segments are placed in multiwell plates (24-well format) onto water agar. The leaf disks are sprayed with a test solution before (preventative) or after (curative) inoculation. Compounds to be tested are prepared as DMSO solutions (max. 10 mg/ml) which are diluted to the appropriate concentration with 0.025% Tween20 just before spraying. The inoculated leaf disks or segments are incubated under defined conditions (temperature, relative humidity, light, etc.) according to the respective test system. A single evaluation of disease level is carried out 3 to 14 days after inoculation, depending on the pathosystem. Percent disease control relative to the untreated check leaf disks or segments is then calculated.
Soybean leaf disks are placed on water agar in multiwell plates (24-well format) and sprayed with the formulated test compound diluted in water. One day after application leaf discs are inoculated by spraying a spore suspension on the lower leaf surface. After an incubation period in a climate cabinet of 24-36 hours in darkness at 20° C. and 75% rh leaf disc are kept at 20° C. with 12 h light/day and 75% rh. The activity of a compound is assessed as percent disease control compared to untreated when an appropriate level of disease damage appears in untreated check leaf disks (12 to 14 days after application).
The following compounds at 200 ppm in the applied formulation give at least 80% disease control in this test when compared to untreated control leaf disks under the same conditions, which show extensive disease development.

The test system of data set [3] is Glomerella lagenarium (Colletotrichum lagenarium). As to the kind of experiment: Glomerella lagenarium (Colletotrichum lagenarium) liquid culture / cucumber / preventative (anthracnose). The class given is cell-based. The settings on record: Colletotrichum orbiculare; 20 ppm in the applied formulation; conidia in PDB nutrient broth, 24° C.; 3 to 4 days after application; compared to untreated; read-out: disease control (inhibition of growth measured photometrically). The method in brief:
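Test compound, diluted from DMSO, was mixed in microtiter wells with fungal conidia taken from cryogenic storage and suspended in PDB nutrient broth. After 3 to 4 days at 24 °C, photometric growth measurement gave antifungal activity as a percentage of the untreated control.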

As a reminder, the inhibition is the drop in the measured response relative to a control, in per cent. In general, melting point refers to the temperature, or range, at which the solid turns liquid. `O=S(=O)(NCc1ccc(-c2noc(C(F)(F)F)n2)cc1)C1CC1` [Compound 3.2, N-[[4-[5-(trifluoromethyl)-1,2,4-oxadiazol-3-yl]phenyl]methyl] cyclopropanesulfon-amide] registered a melting point of 130 to 134 °C. Besides, in data set [1], the pest or weed control at 200 ppm was not below 80%. The pest or weed control at 200 ppm in data set [2] was not below 80%. Besides, the pest or weed control at 200 ppm in the data set on Phakopsora pachyrhizi was not below 80%. In addition, the inhibition at 20 ppm in data set [3] is not below 80%.

For the molecule `O=S(=O)(CC1CC1)NCc1ccc(-c2noc(C(F)(F)F)n2)cc1` [Compound 3.3, 1-cyclopropyl-N-[[4-[5-(trifluoromethyl)-1,2,4-oxadiazol-3-yl]phenyl]methyl] methanesulfonamide], the melting point lay within 140 to 144 °C. In addition, the pest or weed control at 200 ppm in data set [1] was not below 80%. Moreover, the pest or weed control at 200 ppm in data set [2] was not below 80%. Further, the pest or weed control at 200 ppm in the data set with Phakopsora pachyrhizi is not below 80%. Besides, the inhibition at 20 ppm in data set [3] is not below 80%.

As to `O=S(=O)(CC1CCOC1)NCc1ccc(-c2noc(C(F)(F)F)n2)cc1` (stereo not drawn) [Compound 3.4, 1-tetrahydrofuran-3-yl-N-[[4-[5-(trifluoromethyl)-1,2,4-oxadiazol-3-yl]phenyl]methyl] methanesulfonamide], the melting point is 117 to 122 °C. In data set [1], the pest or weed control at 200 ppm is not below 80%. Also, the pest or weed control at 200 ppm in data set [2] was not below 80%. The pest or weed control at 200 ppm in the data set on Phakopsora pachyrhizi was not below 80%. In addition, the inhibition at 20 ppm in data set [3] is not below 80%.
